In PubChem BioAssay AID2742 (NMMLSC, 2010):
Values joined by “and” are separate entries in the source; they are usually repeats but may differ in a detail not shown here. Identical values can stand only once. Active and inactive are the calls of the source.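 The calls were made as follows: active = fitted half-maximal concentration for changing background-corrected GFP signal at or below a set limit; inactive = the rest.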

experiment: TOR pathway reporter MEP2-GFP, concentration series – S. cerevisiae, flow cytometry GFP, MLPCN hits, dose response (AID 2742);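 also: GFP tag reports level of MEP2 protein as a downstream target of TOR signalling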; details: S. cerevisiae MEP2-GFP strain, flow cytometry fluorescence, 3 h; at 33 µM (top of the series)

Compound | GFP fluorescence (kMESF), higher = increase
CC(=O)Oc1cccc(N2C(=O)c3cccc4c([N+](=O)[O-])ccc(c34)C2=O)c1 | 7.84 kMESF (inactive)
O=C1C2C3C=CC(CO)(O3)C2C(=O)N1c1ccc(-c2ccccc2)cc1 (stereo not drawn) | 4.74 kMESF (inactive)
CCOC(=O)CSC1=NC(=O)/C(=C\c2ccc(Cl)cc2)S1 | 4.12 kMESF (inactive)
O=c1/c(=C/c2cccc3ccccc23)sc2ncnn12 | 4.23 kMESF (inactive)
CCC(=O)Nc1ccc(NC(=O)c2cc3ccccc3o2)c(OC)c1 | 2.4 kMESF (inactive)
O=C(Cc1ccc(Cl)cc1)NNC(=S)NC(=O)c1cccs1 | 6.72 kMESF (inactive)
Oc1ccc2ccccc2c1N=Nc1nccs1 | 4.97 kMESF (inactive)
O=C(Nc1ccc(Cl)cc1Cl)c1cccc(N2C(=O)C=CC2=O)c1 | 4.39 kMESF (inactive)
CCCCC(=O)NC(=S)NNC(=O)CCc1ccccc1 | 3.11 kMESF (inactive)
C[C@@]12C(=O)OC(=O)[C@]1(C)C1CCC2O1 | 3.51 kMESF (inactive)
CCN(CC)C(=O)Oc1ccnc2cc(Cl)ccc12 | 11.7 kMESF (inactive)
CC(C)(C)C(=O)C(Cl)C(=O)Nc1ccccc1 (stereo not drawn) | 4.12 kMESF (inactive)
Cc1ccc(/C=C2/C(=O)ON=C2c2ccccc2)o1 | 3.11 kMESF (inactive)
CCC(C)/C(C)=N/NC(=O)c1ccc(COc2ccc(Cl)c(C)c2)cc1 (stereo not drawn) | 2.48 kMESF (inactive)
O=[N+]([O-])c1cnc(Sc2ccncn2)s1 | 3.07 kMESF (inactive)
O=C(Oc1oc(-c2ccco2)nc1C=Nc1ccc(Cl)cc1)c1ccco1 | 3.6 kMESF (inactive)
O=[N+]([O-])c1ccc(Sc2nc3ccccc3o2)c([N+](=O)[O-])c1 | 2.65 kMESF (inactive)
CCCCc1ccc(/C=C2/C(=O)ON=C2c2ccccc2)s1 | 2.26 kMESF (inactive)
O=c1oc2ccccc2c(O)c1[C@H]1c2ccc(O)cc2Oc2c1c(=O)oc1ccccc21 | 4.67 kMESF (inactive)
CC1=NOC(=O)/C1=C\c1ccc(-c2cc(Cl)ccc2Cl)o1 | 4.04 kMESF (inactive)
C=CCOc1ccccc1C(=O)/C=C1/C(=O)Nc2ccccc21 | 3.91 kMESF (inactive)

Compound | GFP fluorescence (kMESF), higher = increase
CC(=O)Nc1ncnc2c1c(-c1ccc(Cl)cc1)nn2C(C)(C)C | 2.08 kMESF (inactive)
CC(=O)N(\C=C/C=C/C=C1\Sc2ccccc2C1=O)c1ccccc1 | 8.76 kMESF (inactive)
COc1ccc(-c2cc3nc4n(c(=O)c3s2)CCC4)cc1 | 1.07 kMESF (inactive)
CCCCS(=O)(=O)/C=C\C=C/S(=O)(=O)CCCC | 5.41 kMESF (inactive)
Cn1c(=O)c(C(=O)NNC(=O)c2ccc(Br)cc2)c(O)c2ccccc21 | 3.4 kMESF (inactive)
COc1ccc(C(=O)NC(=S)NNC(=O)CCc2ccccc2)cc1 | 3.68 kMESF (inactive)
Cc1ccc(N=Nc2ccc(O)c3ncccc23)cc1 | 3.18 kMESF (inactive)
CC(Oc1cc2oc(=O)c3c(c2cc1Cl)CCC3)C(=O)NCCN1CCOCC1 (stereo not drawn) | 2.37 kMESF (inactive)
CC(C)(C)c1cc(C(c2cccnc2)N2CCN(CCO)CC2)cc(C(C)(C)C)c1O (stereo not drawn) | -4.66 kMESF (inactive)
C/C(=N\NC(=O)c1cc2ccccc2cc1O)c1ccccn1 | 3.61 kMESF (inactive)
O=c1c2sc(-c3ccccc3)cc2nc2n1CCC2 | 3.03 kMESF (inactive)
COc1cc(/C=C2\C(=O)N(CCC#N)N=C2C)c(Br)cc1OC(C)C | 4.57 kMESF (inactive)
O=S(=O)(/N=C(\Sc1ccc(Cl)cc1)c1ccccc1)c1ccccc1 | 4.33 kMESF (inactive)
O=S(=O)(c1ccccc1)c1ccc(C(F)(F)F)cn1 | 2.27 kMESF (inactive)
C#CCOCCOCCOCCNc1nc(N2CCN(C(=O)CCCCCCCCCCNC(=O)[C@H](CCCCN)n3cc(CCO)nn3)CC2)nc(N2CCN(C(=O)CCCCCCCCCCNC(=O)[C@H](CCCN=C(N)N)n3cc(C[C@@H](C)CC)nn3)CC2)n1 | 3.54 kMESF (inactive)
CC1=C(C)/C(=N\OS(=O)(=O)c2ccccc2)C=CC1=O | 4.84 kMESF (inactive)
CC(=O)c1ccc(N2CCN(C(=O)c3ccc(Br)cc3)CC2)c(F)c1 | 2.85 kMESF (inactive)
COC(=O)CCCC1=CC2=CC(=O)C(C)(OC(=O)CCc3ccccc3)C(=O)C2=CO1 (stereo not drawn) | 1.97 kMESF (inactive)
Oc1c(I)cc(Cl)c2cccnc12 | 5.67 kMESF (inactive)
CN(C)c1ccc(/C=C/c2cc[n+](C)cc2)cc1 | 2.76 kMESF (inactive)
CCOC(=O)c1c(C)oc2c1c(C(c1ccncc1)N1CCOCC1)c(O)c1ccccc12 (stereo not drawn) | 2.42 kMESF (inactive)

Compound | GFP fluorescence (kMESF), higher = increase
CCCCCn1c(=O)c(C(=O)Nc2nc3ccccc3[nH]2)c(O)c2ccccc21 | 1.97 kMESF (inactive)
Cc1cc(Br)c2c(c1)/C(=C/C(=O)c1cccs1)C(=O)N2 | 3.78 kMESF (inactive)
Cc1ccc(/C=C2\C(=O)NC(=S)N(c3ccc(F)cc3)C2=O)s1 | 4.08 kMESF (inactive)
CN(c1ccccc1)c1ccc(/C=c2\s/c(=C(/C#N)C(=O)C(C)(C)C)n(Cc3ccco3)c2=O)cc1 | 13.7 kMESF (inactive)
O=C(CS(=O)c1ccccc1[N+](=O)[O-])Oc1ccc(Br)cc1 (stereo not drawn) | 4.43 kMESF (inactive)
COc1ccc2c(c1)S/C(=C\C(=O)c1ccncc1)N2C | 2.67 kMESF (inactive)
Cc1c(N2C(=O)/C(=C\c3ccccc3O)SC2=S)c(=O)n(-c2ccccc2)n1C | 4.71 kMESF (inactive)
CC(Oc1cccc(Cl)c1)C(=O)Nc1nc(-c2ccccn2)cs1 (stereo not drawn) | 5.7 kMESF (inactive)
O=c1oc(/C=C/c2ccc([N+](=O)[O-])s2)nc2ccccc12 | 5.31 kMESF (inactive)
Cc1cc(C)c(S(=O)(=O)N2CCC(C(=O)NCc3ccc(Cl)cc3Cl)CC2)c(C)c1 | 4.68 kMESF (inactive)
N/C(Cc1ccc(Cl)c(Cl)c1)=N\OC(=O)c1cccs1 | 3.66 kMESF (inactive)
COc1cc(N=c2ssnc2Cl)c(OC)cc1Cl | 6.31 kMESF (inactive) and 6.98 kMESF (inactive)
CCCc1cc(=O)oc2cc(C)cc(OCC(=O)NC3CC3)c12 | 1.67 kMESF (inactive)
N/C(Cc1ccc(Cl)cc1Cl)=N\OC(=O)c1cccs1 | 4.76 kMESF (inactive)
Cc1c(Cc2ccccc2)c(NCCN(C)C)n2c(nc3ccccc32)c1C#N | 4.39 kMESF (inactive)
COc1ccccc1N1C(=O)c2cccc3c(C(=O)O)ccc(c23)C1=O | 3.03 kMESF (inactive)
O=C1NC(=O)N(Cc2ccco2)C(=O)/C1=C/c1ccc(-c2cccc([N+](=O)[O-])c2)o1 | 4.33 kMESF (inactive)
Cc1nc2ccc(NC(=O)c3oc4ccc(F)cc4c3C)cc2s1 | 2.07 kMESF (inactive)
O=C1c2ccccc2C(=O)N1OS(=O)(=O)c1ccc(F)cc1 | 3.26 kMESF (inactive)
O=C(C#Cc1cccc([N+](=O)[O-])c1)c1ccccc1 | 3.98 kMESF (inactive)
COc1cc(/C=C2\C(=O)ON=C2c2ccc(Cl)cc2)ccc1O | 3.71 kMESF (inactive)

Compound | GFP fluorescence (kMESF), higher = increase
COc1ccc(C(=O)NC(=S)NNC(=O)c2cnccn2)cc1OC | 2.46 kMESF (inactive)
CCc1cccc2sc(N3CCN(C(=O)c4ccc([N+](=O)[O-])o4)CC3)nc12 | 0.16 kMESF (inactive)
Cc1ccc(C(=O)Sc2cccccc2=O)cc1 | 3.82 kMESF (inactive)
CC[C@]1(c2ccccc2C)ON(c2ccccc2C(F)(F)F)C1=O | 1.97 kMESF (inactive)
O=C1C=C(c2ccccc2)C(=O)N1Nc1ccccc1 | 6.2 kMESF (inactive)
CC1=NNC(=O)/C1=C\c1cn(-c2ccccc2)nc1-c1ccccc1 | 3.11 kMESF (inactive)
O=[N+]([O-])c1ccc(N=Nc2c(Cl)cc(O)cc2Cl)cc1 | 4.93 kMESF (inactive)
C=CCOc1cccc(C(=O)/C=C2/C(=O)Nc3ccccc32)c1 | 3.41 kMESF (inactive)
CCCCC(=O)NNC(=S)NC(=O)c1ccc(C)cc1 | 4.34 kMESF (inactive)
O=C(Nc1ccccc1)c1nnsc1S(=O)(=O)c1ccc(Cl)cc1 | 6.03 kMESF (inactive)
CC(C)CC(=O)NC(=S)Nc1nc(-c2ccccc2)cs1 | 2.07 kMESF (inactive)
CCCN1CCc2c(sc(NC(=S)NC(=O)c3ccccc3)c2C#N)C1 | 4.04 kMESF (inactive)
CC(=O)Oc1oc(-c2ccccc2)nc1C=Nc1ccc(N(C)C)cc1 | 3.44 kMESF (inactive)
Cc1cc(C)c(C)c(S(=O)(=O)ON2C(=O)c3ccccc3C2=O)c1C | 4.23 kMESF (inactive)
CCOC(=O)c1c(C)oc2c1c(C(c1cccnc1)N1CCOCC1)c(O)c1ccccc12 (stereo not drawn) | 4.43 kMESF (inactive)
Cc1[nH]c(-c2ccccn2)nc(=S)c1Cl | 4.24 kMESF (inactive)
Cc1ccc2nc(/C(C#N)=C/c3ccc(O)c(O)c3)[nH]c2c1 | 4.49 kMESF (inactive)
COc1ccc(/C=C2\C(=O)ON=C2c2ccccc2)cc1 | 4.38 kMESF (inactive)
COc1ccc(NC2=C(Cl)C(=O)N(CCc3ccccc3)C2=O)c(OC)c1 | 1.67 kMESF (inactive)
CCCc1cc(NCc2ccccn2)n2nc(C)c(-c3ccccc3)c2n1 | 2.86 kMESF (inactive)
